Among the data in publication PMC5666424, “Marine-Derived 2-Aminoimidazolone Alkaloids. Leucettamine B-Related Polyandrocarpamines Inhibit Mammalian and Protozoan DYRK & CLK Kinases” (Marine Drugs, 2017) are IC50 values, retold here.

Assay in all cases: Protein kinase assay
One assay concerns the target DYRK1A (Homo sapiens, UniProt Q13627). It counts as biochemical. The settings on record: 15 μmol/L ATP.
Another assay deals with T1, PfGSK-3 (Plasmodium falciparum, UniProt O77344).
T1 sequence (O77344 1-440): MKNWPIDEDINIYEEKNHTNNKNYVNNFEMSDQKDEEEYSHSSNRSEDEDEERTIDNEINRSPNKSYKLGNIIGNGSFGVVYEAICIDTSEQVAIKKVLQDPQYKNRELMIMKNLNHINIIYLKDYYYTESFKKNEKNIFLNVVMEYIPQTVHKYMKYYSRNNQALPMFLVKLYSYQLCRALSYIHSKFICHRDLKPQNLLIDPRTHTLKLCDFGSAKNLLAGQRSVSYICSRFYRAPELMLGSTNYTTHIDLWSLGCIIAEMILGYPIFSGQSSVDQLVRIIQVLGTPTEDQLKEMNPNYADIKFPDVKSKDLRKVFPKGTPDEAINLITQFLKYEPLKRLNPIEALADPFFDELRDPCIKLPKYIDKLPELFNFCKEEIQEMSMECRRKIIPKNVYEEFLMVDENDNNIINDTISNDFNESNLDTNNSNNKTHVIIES
It counts as biochemical. The settings on record: 15 μmol/L ATP; read-out: IC50 PfGSK-3. As to the method: The parasitic kinase genes (Supplementary Data, Table S3) were optimized for expression in E. coli, synthesized, and cloned in pGEX-6P-1 (GE Healthcare, Sigma-Aldrich, St. Quentin Fallavier, France) with the type II restriction enzymes BamHI and XhoI for glutathione S-transferase (GST) fusion at the N-terminus (GenScript). Plasmids were transformed into chemically competent E. coli BL21(DE3), which were grown overnight at 37 °C in 2 × YT medium containing 100 μg/mL ampicillin. These cultures were used to inoculate 1 L volumes of 2 × YT medium (containing 100 μg/mL ampicillin) in 5 L flasks. The cultures were allowed to grow at 37 °C before the temperature was decreased to 18 °C. At an optical density at 600 nm (OD600) of about 1.0, protein expression was induced overnight at 18 °C with 0.1 mM isopropyl β-D-1-thiogalactopyranoside (IPTG). The bacteria were harvested by centrifugation and were frozen at −20 °C.
Cells were resuspended in a lysis buffer (PBS pH 7.4, 1% NP40, 1 mM DTT, 1 mM EDTA, 1 mM PMSF) in the presence of protease inhibitor cocktail (Roche), and lysozyme was added to 1 mg/mL and incubated 1 h at 4 °C with gentle agitation. Cells were then sonicated on ice before 6 mM MgCl2 and 25 U/mL benzonase (Novagen, Merck Millipore, Fontenay sous Bois, France) were added to degrade nucleic acids and decrease sample viscosity. After centrifugation at 4 °C, the soluble fraction was collected and proteins were bound to Glutathione sepharose 4B beads (GE Healthcare). Beads were washed three times with lysis buffer and once with modified buffer C (25 mM MOPS pH 7.0, 60 mM β-glycerophosphate, 15 mM p-nitrophenylphosphate, 15 mM EGTA, 15 mM MgCl2, 2 mM DTT, 1 mM sodium vanadate). Proteins were eluted with elution buffer (buffer C containing 30 mM reduced glutathione, 15% glycerol, and pH adjusted to 8.5).

Another assay has as its target T2, DYRK2 (Homo sapiens, UniProt Q92630).
T2 sequence (Q92630 1-601): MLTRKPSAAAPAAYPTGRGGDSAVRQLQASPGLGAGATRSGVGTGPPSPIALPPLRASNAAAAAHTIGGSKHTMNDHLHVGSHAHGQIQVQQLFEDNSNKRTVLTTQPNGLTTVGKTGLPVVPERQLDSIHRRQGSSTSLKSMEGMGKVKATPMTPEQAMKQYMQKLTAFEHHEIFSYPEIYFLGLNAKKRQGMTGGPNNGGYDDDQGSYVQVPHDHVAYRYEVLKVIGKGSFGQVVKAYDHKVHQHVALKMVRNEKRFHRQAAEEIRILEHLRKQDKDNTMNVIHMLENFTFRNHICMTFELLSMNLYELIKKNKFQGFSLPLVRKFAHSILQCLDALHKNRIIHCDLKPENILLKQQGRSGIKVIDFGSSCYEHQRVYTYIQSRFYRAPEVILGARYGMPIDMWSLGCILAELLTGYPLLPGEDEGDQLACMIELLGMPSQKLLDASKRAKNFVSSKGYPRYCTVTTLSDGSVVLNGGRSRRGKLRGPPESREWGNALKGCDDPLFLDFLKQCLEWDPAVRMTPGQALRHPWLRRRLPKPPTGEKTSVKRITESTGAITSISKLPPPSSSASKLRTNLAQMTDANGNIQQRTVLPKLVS
It counts as biochemical. The settings on record: 15 μmol/L ATP; read-out: IC50 DYRK2.

For the next assay, the target named is GSK-3α/β. The format is biochemical, porcine. The settings on record: 15 μmol/L ATP.
The target of the next assay is CLK2 (Mus musculus, UniProt O35491). The settings on record: read-out: IC50 CLK2; 15 μmol/L ATP.
The target in another assay is CK1δ/ε. The format is biochemical, porcine. The settings on record: 15 μmol/L ATP. As to the method: (§1) CK1δ/ε (porcine brain, native) and LmCK1 (leishmania major, recombinant, expressed in E. coli as HIS fusion proteins) was assayed as described for CDK1 but in buffer C and using 25 μM CKS peptide ([…]pSAYSITA), a CK1-specific substrate.
A further assay deals with T3, CDK5/p25 (Homo sapiens, UniProt Q00535).
T3 construct: made in house
The format is biochemical. The settings on record: 15 μmol/L ATP; read-out: IC50 CDK5/p25.

The next assay addresses T4, CDK2/cyclin A (Homo sapiens, UniProt P24941).
T4 construct: made in house
It counts as biochemical. The settings on record: 15 μmol/L ATP; read-out: IC50 CDK2/cyclin A.

For the next assay, the target named is CDK9/cyclin T (Homo sapiens, UniProt P50750). The settings on record: read-out: IC50 CDK9/cyclin T; 15 μmol/L ATP.
Another assay has as its target CDK1/cyclin B. The format is biochemical, starfish. The settings on record: 15 μmol/L ATP.
The next assay concerns the target DYRK1B (Homo sapiens, UniProt Q9Y463). The format is biochemical. The settings on record: 15 μmol/L ATP.
The next assay addresses CLK1 (Mus musculus, UniProt P22518). The settings on record: read-out: IC50 CLK1; 15 μmol/L ATP.
The next assay concerns the target CLK4 (Mus musculus, UniProt O35493). The settings on record: read-out: IC50 CLK4; 15 μmol/L ATP.
A further assay has as its target LmCK1 (Leishmania major, UniProt Q9NHE1). The format is biochemical. The settings on record: 15 μmol/L ATP; read-out: IC50 LmCK1. On the procedure:
as §1

The next assay has as its target CLK3 (Mus musculus, UniProt O35492). The settings on record: read-out: IC50 CLK3; 15 μmol/L ATP.
The target in another assay is T5, DYRK3 (Homo sapiens, UniProt O43781).
T5 sequence (O43781 1-588): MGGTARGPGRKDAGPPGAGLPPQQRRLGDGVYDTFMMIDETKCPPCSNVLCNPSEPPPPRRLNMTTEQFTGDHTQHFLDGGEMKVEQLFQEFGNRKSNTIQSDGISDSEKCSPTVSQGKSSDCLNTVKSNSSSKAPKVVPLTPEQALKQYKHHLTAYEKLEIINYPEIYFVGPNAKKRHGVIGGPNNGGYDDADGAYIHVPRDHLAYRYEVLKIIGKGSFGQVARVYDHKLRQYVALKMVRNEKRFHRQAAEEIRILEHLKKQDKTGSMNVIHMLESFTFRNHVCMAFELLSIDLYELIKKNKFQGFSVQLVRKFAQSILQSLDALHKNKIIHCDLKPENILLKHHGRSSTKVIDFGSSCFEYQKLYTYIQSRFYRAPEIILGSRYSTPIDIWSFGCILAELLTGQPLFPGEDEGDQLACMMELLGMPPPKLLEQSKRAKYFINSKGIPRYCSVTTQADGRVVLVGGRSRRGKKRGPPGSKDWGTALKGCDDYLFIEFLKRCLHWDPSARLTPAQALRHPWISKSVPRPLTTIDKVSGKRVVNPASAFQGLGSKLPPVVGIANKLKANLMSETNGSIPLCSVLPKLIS
The format is biochemical. The settings on record: 15 μmol/L ATP; read-out: IC50 DYRK3.

Chain of DYRK1B (Q9Y463 whole entry): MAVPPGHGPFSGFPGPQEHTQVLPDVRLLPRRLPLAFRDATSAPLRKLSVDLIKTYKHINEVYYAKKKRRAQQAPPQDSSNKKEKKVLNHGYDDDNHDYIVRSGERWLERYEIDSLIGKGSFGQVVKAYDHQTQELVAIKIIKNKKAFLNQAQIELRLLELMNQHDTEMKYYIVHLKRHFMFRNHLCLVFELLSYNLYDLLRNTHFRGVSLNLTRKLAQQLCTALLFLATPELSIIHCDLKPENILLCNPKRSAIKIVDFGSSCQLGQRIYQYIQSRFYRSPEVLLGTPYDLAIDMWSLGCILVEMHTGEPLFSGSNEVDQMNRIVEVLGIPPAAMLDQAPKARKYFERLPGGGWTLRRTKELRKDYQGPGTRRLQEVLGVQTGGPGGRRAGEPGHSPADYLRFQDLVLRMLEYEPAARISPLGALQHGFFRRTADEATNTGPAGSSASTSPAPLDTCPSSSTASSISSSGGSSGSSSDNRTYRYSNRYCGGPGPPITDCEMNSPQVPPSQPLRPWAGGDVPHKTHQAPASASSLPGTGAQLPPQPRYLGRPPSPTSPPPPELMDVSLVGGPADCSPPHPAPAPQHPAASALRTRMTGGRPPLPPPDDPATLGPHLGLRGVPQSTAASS
Chain of CLK4 (O35493 whole entry): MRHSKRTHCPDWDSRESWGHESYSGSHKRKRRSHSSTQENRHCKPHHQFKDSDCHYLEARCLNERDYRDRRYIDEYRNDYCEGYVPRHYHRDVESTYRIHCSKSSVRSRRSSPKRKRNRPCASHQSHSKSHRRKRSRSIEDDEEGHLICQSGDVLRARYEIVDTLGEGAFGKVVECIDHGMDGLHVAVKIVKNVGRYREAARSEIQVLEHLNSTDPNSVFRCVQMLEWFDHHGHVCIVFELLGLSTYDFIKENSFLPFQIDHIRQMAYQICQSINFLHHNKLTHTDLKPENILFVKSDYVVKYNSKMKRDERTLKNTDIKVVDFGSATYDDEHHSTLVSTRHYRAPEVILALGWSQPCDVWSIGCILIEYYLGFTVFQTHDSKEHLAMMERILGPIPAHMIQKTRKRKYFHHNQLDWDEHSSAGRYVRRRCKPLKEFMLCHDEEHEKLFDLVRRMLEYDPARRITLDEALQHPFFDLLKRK
Chain of LmCK1 (Q9NHE1 entry or part of it): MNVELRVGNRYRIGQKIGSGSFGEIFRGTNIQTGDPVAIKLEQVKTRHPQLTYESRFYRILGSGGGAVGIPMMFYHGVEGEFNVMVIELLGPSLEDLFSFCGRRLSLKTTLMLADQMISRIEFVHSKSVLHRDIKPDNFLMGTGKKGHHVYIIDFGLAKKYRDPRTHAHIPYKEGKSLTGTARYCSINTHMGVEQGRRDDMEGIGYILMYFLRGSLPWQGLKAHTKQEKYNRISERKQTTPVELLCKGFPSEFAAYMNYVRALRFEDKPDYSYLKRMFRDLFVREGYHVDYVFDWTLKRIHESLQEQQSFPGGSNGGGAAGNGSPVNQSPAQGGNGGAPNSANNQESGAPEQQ
T3 sequence (Q00535 whole entry): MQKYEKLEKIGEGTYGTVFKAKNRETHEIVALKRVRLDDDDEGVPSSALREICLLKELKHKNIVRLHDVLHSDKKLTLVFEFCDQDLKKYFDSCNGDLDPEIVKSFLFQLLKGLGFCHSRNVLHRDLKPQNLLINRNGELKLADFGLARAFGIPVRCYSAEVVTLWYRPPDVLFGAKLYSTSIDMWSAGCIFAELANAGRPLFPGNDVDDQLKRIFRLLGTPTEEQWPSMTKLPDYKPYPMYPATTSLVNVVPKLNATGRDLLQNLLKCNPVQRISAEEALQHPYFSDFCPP
T3 sequence (Q15078 99-307 partner limits assumed): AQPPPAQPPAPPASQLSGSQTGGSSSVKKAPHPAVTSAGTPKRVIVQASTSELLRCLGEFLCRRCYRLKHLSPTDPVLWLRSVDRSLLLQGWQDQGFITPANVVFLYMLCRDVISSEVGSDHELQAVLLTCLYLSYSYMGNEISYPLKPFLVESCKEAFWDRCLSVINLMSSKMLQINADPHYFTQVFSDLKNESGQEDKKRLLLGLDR
Chain of CLK3 (O35492 whole entry): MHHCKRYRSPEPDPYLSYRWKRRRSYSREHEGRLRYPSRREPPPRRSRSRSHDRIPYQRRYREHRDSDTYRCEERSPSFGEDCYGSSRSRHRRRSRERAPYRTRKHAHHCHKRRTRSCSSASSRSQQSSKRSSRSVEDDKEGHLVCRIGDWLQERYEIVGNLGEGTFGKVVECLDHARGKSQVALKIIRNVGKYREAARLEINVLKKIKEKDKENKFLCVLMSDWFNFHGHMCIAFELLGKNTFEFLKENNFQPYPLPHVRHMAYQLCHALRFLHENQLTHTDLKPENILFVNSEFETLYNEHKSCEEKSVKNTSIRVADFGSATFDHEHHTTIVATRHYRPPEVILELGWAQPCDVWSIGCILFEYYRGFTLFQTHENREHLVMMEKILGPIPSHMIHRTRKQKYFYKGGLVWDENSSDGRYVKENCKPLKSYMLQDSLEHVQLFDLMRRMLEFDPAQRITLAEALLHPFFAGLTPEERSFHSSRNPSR
Chain of CLK2 (O35491 whole entry, the tested form may be a part): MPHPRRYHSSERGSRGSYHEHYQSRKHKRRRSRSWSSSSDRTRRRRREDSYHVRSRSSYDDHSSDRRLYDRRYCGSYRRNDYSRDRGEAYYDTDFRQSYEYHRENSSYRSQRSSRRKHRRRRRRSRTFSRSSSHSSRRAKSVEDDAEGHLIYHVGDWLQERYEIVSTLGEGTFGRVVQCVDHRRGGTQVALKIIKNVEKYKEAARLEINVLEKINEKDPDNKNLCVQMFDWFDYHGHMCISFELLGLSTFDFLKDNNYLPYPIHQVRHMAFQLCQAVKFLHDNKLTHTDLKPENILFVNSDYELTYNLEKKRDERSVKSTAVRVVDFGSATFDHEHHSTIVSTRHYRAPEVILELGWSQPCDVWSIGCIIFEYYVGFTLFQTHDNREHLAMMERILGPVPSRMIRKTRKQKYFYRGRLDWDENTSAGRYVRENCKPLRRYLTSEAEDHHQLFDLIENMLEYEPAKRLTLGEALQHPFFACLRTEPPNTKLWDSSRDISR
Chain of CDK9/cyclin T (P50750 whole entry): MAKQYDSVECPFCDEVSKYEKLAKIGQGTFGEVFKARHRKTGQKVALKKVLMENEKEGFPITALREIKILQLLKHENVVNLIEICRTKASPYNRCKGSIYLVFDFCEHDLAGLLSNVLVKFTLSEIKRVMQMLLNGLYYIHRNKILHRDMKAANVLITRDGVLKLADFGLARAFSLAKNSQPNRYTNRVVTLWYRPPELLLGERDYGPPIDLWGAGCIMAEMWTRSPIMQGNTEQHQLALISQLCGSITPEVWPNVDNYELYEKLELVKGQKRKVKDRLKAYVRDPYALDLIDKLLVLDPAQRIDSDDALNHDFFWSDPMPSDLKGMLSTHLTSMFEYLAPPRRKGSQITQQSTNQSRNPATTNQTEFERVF
Chain of CDK9/cyclin T (O60563 whole entry partner): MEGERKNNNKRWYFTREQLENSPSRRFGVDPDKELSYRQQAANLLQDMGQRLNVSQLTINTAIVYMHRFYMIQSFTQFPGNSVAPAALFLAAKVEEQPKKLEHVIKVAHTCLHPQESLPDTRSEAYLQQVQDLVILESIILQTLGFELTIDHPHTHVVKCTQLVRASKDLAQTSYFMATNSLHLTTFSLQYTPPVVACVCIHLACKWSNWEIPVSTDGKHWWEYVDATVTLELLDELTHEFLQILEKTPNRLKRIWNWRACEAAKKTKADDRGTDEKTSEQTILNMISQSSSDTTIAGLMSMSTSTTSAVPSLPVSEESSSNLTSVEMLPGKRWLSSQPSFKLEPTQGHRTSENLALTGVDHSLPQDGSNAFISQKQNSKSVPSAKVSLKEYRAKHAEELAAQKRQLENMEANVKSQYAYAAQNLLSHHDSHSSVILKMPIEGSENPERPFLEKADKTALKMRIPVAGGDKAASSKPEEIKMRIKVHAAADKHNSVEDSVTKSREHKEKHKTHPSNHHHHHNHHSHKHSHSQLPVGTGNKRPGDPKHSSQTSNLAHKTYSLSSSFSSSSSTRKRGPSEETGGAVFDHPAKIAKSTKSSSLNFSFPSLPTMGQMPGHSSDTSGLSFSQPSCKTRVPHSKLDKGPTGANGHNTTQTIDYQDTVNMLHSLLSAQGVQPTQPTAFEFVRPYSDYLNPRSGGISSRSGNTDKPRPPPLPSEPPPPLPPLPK
Chain of CLK1 (P22518 whole entry): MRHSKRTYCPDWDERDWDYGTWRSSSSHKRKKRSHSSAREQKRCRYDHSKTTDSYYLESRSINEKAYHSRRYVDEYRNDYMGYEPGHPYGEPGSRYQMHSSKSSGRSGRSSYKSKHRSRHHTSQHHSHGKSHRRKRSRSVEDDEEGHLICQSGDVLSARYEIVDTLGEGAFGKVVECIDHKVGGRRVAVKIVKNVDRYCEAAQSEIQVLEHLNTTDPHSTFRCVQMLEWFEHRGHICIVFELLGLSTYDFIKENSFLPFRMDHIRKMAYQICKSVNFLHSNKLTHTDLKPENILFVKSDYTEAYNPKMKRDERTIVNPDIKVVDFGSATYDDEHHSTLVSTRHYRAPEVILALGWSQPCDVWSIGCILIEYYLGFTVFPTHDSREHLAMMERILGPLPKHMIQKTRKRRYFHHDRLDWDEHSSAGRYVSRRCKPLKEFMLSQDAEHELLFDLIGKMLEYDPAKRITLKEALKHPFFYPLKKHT

As for `NC1=NC(=Cc2cc(Br)cs2)C(=O)N1` [PAC11], the IC50 is 2.1 µM on DYRK1A; above 10 µM at PfGSK-3; 1.3 µM on DYRK2; 2 µM against GSK-3α/β; at least 10 µM on CLK2; above 10 µM at CK1δ/ε. Besides, the IC50 at CDK5/p25 is above 10 µM; on CDK2/cyclin A, above 10 µM; at CDK9/cyclin T, above 10 µM; against CDK1/cyclin B, above 10 µM; against DYRK1B it was 6.2 µM; at CLK1 it was 4.2 µM. Moreover, the IC50 on CLK4 was 3.2 µM; on LmCK1 it was above 10 µM; at CLK3, above 10 µM; at DYRK3 it was 2.4 µM.

For `NC1=NC(=Cc2c[nH]nc2-c2ccccc2)C(=O)N1` [PAC9], the IC50 on DYRK1A was above 10 µM; at PfGSK-3, above 10 µM; at DYRK2, above 10 µM; against GSK-3α/β, above 10 µM; at CLK2 it was above 10 µM; at CK1δ/ε, 3.6 µM. The IC50 at CDK5/p25 is above 10 µM; at CDK2/cyclin A, above 10 µM; on CDK9/cyclin T, above 10 µM; on CDK1/cyclin B it was above 10 µM; on DYRK1B it was above 10 µM; on CLK1, at least 10 µM. For the same compound, the IC50 on CLK4 was above 10 µM; on LmCK1, 0.63 µM; on CLK3, above 10 µM; at DYRK3, above 10 µM.

Take `NC1=NC(=Cc2ccc(-n3ccnc3)cc2)C(=O)N1` [PAC8]: the IC50 against DYRK1A, on PfGSK-3, on DYRK2, against GSK-3α/β, at CLK2 and against CK1δ/ε was above 10 µM in each case. In addition, the IC50 at CDK5/p25 is above 10 µM; at CDK2/cyclin A, above 10 µM; at CDK9/cyclin T it was 0.51 µM; against CDK1/cyclin B it was above 10 µM; on DYRK1B it was above 10 µM; at CLK1, above 10 µM. The IC50 at CLK4, at LmCK1, on CLK3 and at DYRK3 was above 10 µM in each case.

Consider `COc1cc(C=C2N=C(N)NC2=O)ccc1F` [PAC5], for which the IC50 against DYRK1A was 1.3 µM; on PfGSK-3, above 10 µM; at DYRK2, 0.64 µM; against GSK-3α/β, above 10 µM; at CLK2 it was 7.5 µM; on CK1δ/ε it was above 10 µM. Further, the IC50 on CDK5/p25 was above 10 µM; on CDK2/cyclin A, above 10 µM; on CDK9/cyclin T it was at least 10 µM; against CDK1/cyclin B, above 10 µM; against DYRK1B, 6.1 µM; at CLK1, 2.2 µM. The IC50 at CLK4 is 2.4 µM; at LmCK1, above 10 µM; at CLK3, above 10 µM; at DYRK3 it was 5.7 µM.

Consider `NC1=NC(=Cc2cccc(Br)c2)C(=O)N1` [PAC3], for which the IC50 was 2.1 µM at DYRK1A; above 10 µM on PfGSK-3; 2.2 µM at DYRK2; above 10 µM against GSK-3α/β; 6.3 µM at CLK2; at least 10 µM against CK1δ/ε. In addition, the IC50 is above 10 µM on CDK5/p25; at least 10 µM at CDK2/cyclin A; above 10 µM on CDK9/cyclin T; above 10 µM on CDK1/cyclin B; 8.2 µM against DYRK1B; 2.2 µM at CLK1. In addition, the IC50 on CLK4 was 2.3 µM; on LmCK1, above 10 µM; at CLK3, above 10 µM; at DYRK3, above 10 µM.

As to `NC1=NC(=Cc2ccccc2N2CCOCC2)C(=O)N1` [PAC7], the IC50 against DYRK1A, on PfGSK-3, at DYRK2, against GSK-3α/β, on CLK2 and against CK1δ/ε was above 10 µM each time. Further, the IC50 at CDK5/p25, at CDK2/cyclin A, on CDK9/cyclin T, at CDK1/cyclin B, at DYRK1B and on CLK1 was above 10 µM each time. Moreover, the IC50 on CLK4, at LmCK1, on CLK3 and at DYRK3 was above 10 µM in each case.
